Data: patent US20050039231A1, “Method for selecting transformed plant cells using ethionine and cystathionine gamma synthase as the selection agent and marker gene” (Rutgers, The State University, priority 1999, published 2005)

Columns and labels:
[1] = test system: transgenic potato plants (CGS+); assay: Resistance to ethionine in CGS+ transgenic potato plants (growth on maintenance medium with ethionine); format: in vivo, Russet Burbank potato
Method: (§1) Inaba, et al. used 100 μM ethionine, the toxic analogue of methionine to select Arabidopsis thaliana mutants that overaccumulated methionine. We tested the effects of ethionine on the growth of transgenic potato plants by incorporating ethionine into the maintenance medium. Several concentrations of ethionine, 10, 25, 50, 100, 200, 300 μM were tested initially using wild-type potato plants.

wild-type potato plants = assay: Effect of ethionine in the maintenance medium on growth of wild-type potato plants; format: in vivo, Russet Burbank potato
Method: as §1

[2] = ethionine 10 μM in maintenance medium

SMILES: CCSCC[C@H](N)C(=O)O [ethionine]
- growth of transgenic potato plants [1, 2]: continued to grow
- root initiation of transgenic potato plants [1, 2]: all transgenic plants initiated roots in three days
- growth of transgenic potato plants ([1]; ethionine 25 and 50 μM in maintenance medium): only CGS4 and CGS8 had limited growth of roots
- growth of wild-type potato plants (wild-type potato plants; [2]): growth of wild-type plants were inhibited
- growth of wild-type potato plants (wild-type potato plants; ethionine 50 μM and higher (10, 25, 50, 100, 200, 300 μM tested) in maintenance medium): total inhibition of growth
